Reference: US7176320B2, “Benzimidazole derivative” (Teijin Limited, priority 2000, dated 2007)

Tests used:
[1] = In vitro metabolism test using liver microsomes (Ms); type: in vitro ADME; conditions: liver microsomes 1.0 mg/mL, substrate 5.0 μM, NADPH 1.0 mM, 37° C.; for MR (metabolic rate at its maximum): pH 7.4
Experimental: The metabolic rate was determined from the decrease in the amount of the unchanged form at each reaction time and the reaction time based on assigning a value of 100% to the amount of the unchanged form at the initial concentration (reaction time: 0 minutes), and the metabolic rate at the time the metabolic rate reached a maximum was evaluated as the MR value. M=(substrate concentration at reaction time: 0 min.−substrate concentration after reaction)÷reaction time÷protein concentration (nmol/min./mg protein)

[2] = target: T1, recombinant human mast cell chymase (Homo sapiens, UniProt P23946); assay: Measurement of inhibition of enzyme activity of recombinant human mast cell chymase; type: biochemical; conditions: active human mast cell chymase, substrate succinyl-alanyl-histidyl-prolyl-phenylalanylparanitroanilide, 5 minutes at room temperature, absorbance 405 nm; read-out: inhibitory activity IC50
T1 construct: made in house; host or cells: insect cells (Th5) infected with recombinant baculovirus
T1 sequence (P23946 22-247): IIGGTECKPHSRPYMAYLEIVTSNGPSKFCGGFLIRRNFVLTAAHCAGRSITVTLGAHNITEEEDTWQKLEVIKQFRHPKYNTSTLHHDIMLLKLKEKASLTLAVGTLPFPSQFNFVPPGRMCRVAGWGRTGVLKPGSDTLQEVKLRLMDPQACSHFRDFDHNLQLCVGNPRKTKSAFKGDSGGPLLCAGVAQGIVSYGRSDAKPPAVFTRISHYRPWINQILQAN
Experimental: Recombinant human mast cell chymase was prepared in accordance with the report of Urata, et al. (Journal of Biological Chemistry, Vol. 266, p. 17173 (1991)). Namely, human mast cell chymase was purified by heparin sepharose (Pharmacia) from a culture supernatant of insect cells (Th5) infected with recombinant baculovirus containing cDNA coding for human mast cell chymase. Moreover, after activating in accordance with the report of Murakami, et al. (Journal of Biological Chemistry, Vol. 270, p. 2218 (1995)), the human mast cell chymase was purified with heparin sepharose to obtain active human mast cell chymase.
After adding 2 μl of DMSO solution containing a compound of the present invention to 50 μl of Buffer A (0.5–3.0 M NaCl, 50 mM Tris-HCl, pH 8.0) containing 1–5 ng of the active human mast cell chymase obtained in Example 16, 50 μl of Buffer A containing 0.5 mM succinyl-alanyl-histidyl-prolyl-phenylalanylparanitroanilide (Bacchem) as substrate were added and allowed to react for 5 minutes at room temperature. The changes over time in absorbance at 405 nm were measured to investigate inhibitory activity.

[3] = Measurement of blood concentration during administration by intragastric forced feeding to rats; type: in vivo, rat; conditions: male SD rats, fasting, 30 mg/kg, serum
Experimental: The compounds indicated with the above compound nos. 39, 52 and 244 were administered by intragastric forced feeding to male SD rats while fasting at a dose of 30 mg/kg, after which blood samples were collected immediately after administration and at 30 minutes and 1, 2 and 4 hours after administration. Following collection of blood samples, where samples were immediately separated into serum components, the compound of the present invention was extracted by ordinary solid phase extraction methods, and the resulting samples were analyzed by HPLC using an ODS column (32% acetonitrile-water-0.05% TFA was used for the mobile phase for compound nos. 52 and 244, while 47% acetonitrile-water-10 mM ammonium acetate buffer (pH 4.0) was used for the mobile phase for compound no. 39) followed by measurement of the amount of the unchanged form.

[4] = 30 minutes after administration

Row | Structure (SMILES) | Percentage of substrate remaining after 30 min. [1] | MR (metabolic rate at its maximum) [1] | IC50 [2] | also measured
1 | Cc1ccc2scc(Cn3c(SCCCC(=O)O)nc4cc(C)c(C)cc43)c2c1 [compound 536] | 56.3% | 0.131 nmol/min./mg protein | – | –
2 | Cc1cc2nc(SCCCC(=O)O)n(Cc3csc4ccccc34)c2cc1C [Compound No. 532] | 36.2% | 0.277 nmol/min./mg protein | 1 to 10 nM | –
3 | COc1ccc2c(c1)nc(SCCCC(=O)O)n2Cc1csc2cccc(C)c12 [Compound No. 154, 4-(1-((4-methylbenzothiophene-3-yl)methyl)-5-methoxybenzimidazole-2-ylthio)butanoic acid] | – | – | 1 to 10 nM | –
4 | O=C(O)CCCSc1nc2ccccc2n1Cc1csc2ccccc12 [Compound No. 52] | 47.5% | 0.331 nmol/min./mg protein | – | Blood concentration of the unchanged form After 30 min. [3, 4]: 60500 ng/mL; Blood concentration of the unchanged form After 4 hr. ([3]; 4 hours after administration): 12700 ng/mL
5 | Cn1cc(Cn2c(SCCCC(=O)O)nc3ccccc32)c2ccccc21 [Compound No. 34, 4-(1-((1-methylindole-3-yl)methyl)benzimidazole-2-ylthio)butanoic acid] | 60.3% | 0.260 nmol/min./mg protein | 10 to 100 nM | –
6 | O=C(O)CCCSc1nc2cc(Cl)c(Cl)cc2n1Cc1csc2ccccc12 [compound 628] | – | – | 10 to 100 nM | –
7 | COc1ccc2nc(SCCCC(=O)O)n(Cc3csc4cccc(C)c34)c2c1 [Compound No. 1114, 4-(1-((4-methylbenzothiophene-3-yl)methyl)-6-methoxybenzimidazole-2-ylthio)butanoic acid] | – | – | 1 to 10 nM | –
8 | Cc1ccc2scc(Cn3c(SCCCC(=O)O)nc4ccccc43)c2c1 [Compound No. 56] | 41.2% | 0.111 nmol/min./mg protein | – | –
9 | Cc1cc2nc(SCCCC(=O)O)n(Cc3cn(C)c4cccc(C)c34)c2cc1C [Compound No. 519] | 52.9% | 0.102 nmol/min./mg protein | 1 to 10 nM | –
10 | Cc1ccc2nc(SCCCC(=O)O)n(Cc3csc4ccccc34)c2c1 [Compound No. 436] | – | – | 10 to 100 nM | –
11 | Cc1cccc2c1c(Cn1c(SCCCC(=O)O)nc3ccccc31)cn2C [Compound No. 39] | 80.1% | 0 nmol/min./mg protein | 1 to 10 nM | concentration at 30 min ([3]; rat, oral, 30 minutes after administration, read-out: Blood concentration of the unchanged form After 30 min.): 16100 ng/mL; concentration at 4 h ([3]; rat, oral, 4 hours after administration, read-out: Blood concentration of the unchanged form After 4 hr.): 6300 ng/mL
12 | Cc1cc2nc(SCCCC(=O)O)n(Cc3cn(C)c4ccccc34)c2cc1C [compound 514] | 48.7% | 0.087 nmol/min./mg protein | – | –
13 | COc1ccc2nc(SCCCC(=O)O)n(Cc3csc4ccc(C)cc34)c2c1 [Compound No. 1112, 4-(1-((5-methylbenzothiophene-3-yl)methyl)-6-methoxybenzimidazole-2-ylthio)butanoic acid] | – | – | 1 to 10 nM | –
14 | N#Cc1ccc2c(c1)nc(SCCCC(=O)O)n2Cc1csc2ccccc12 [Compound No. 244] | 57.9% | 0.211 nmol/min./mg protein | – | Blood concentration of the unchanged form After 30 min. [3, 4]: 16500 ng/mL; Blood concentration of the unchanged form After 4 hr. ([3]; 4 hours after administration): 8900 ng/mL
15 | COc1ccc2c(c1)nc(SCCCC(=O)O)n2Cc1cn(C)c2cccc(C)c12 [Compound No. 135] | 55.2% | 0.097 nmol/min./mg protein | 10 to 100 nM | –
16 | COc1ccc2c(c1)nc(SCCCC(=O)O)n2Cc1csc2ccccc12 [Compound No. 148, 4-(1-((benzothiophene-3-yl)methyl)-5-methoxybenzimidazole-2-ylthio)butanoic acid] | – | – | 1 to 10 nM | –
17 | COc1ccc2c(c1)nc(SCCCC(=O)O)n2Cc1csc2ccc(C)cc12 [Compound No. 152, 4-(1-((5-methylbenzothiophene-3-yl)methyl)-5-methoxybenzimidazole-2-ylthio)butanoic acid] | – | – | 10 to 100 nM | –
